Key:
[1] = system: human lymphoma cell line RAMOS cells; assay: Cell growth inhibition test using RAMOS cell, MTT assay; format: cell-based; conditions: 50% growth inhibition concentration
Procedure, shortened: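 Cells in RPMI1640 with 10% FBS were exposed to compound (DMSO ≤1%) for 3 days at 37° C, 5% CO2. Viability was read by MTT (4 h, formazan in DMSO, OD 540/660 nm) against a day-0 plate; GI50 was interpolated from T/C % growth rates.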

[2] = system: human lymphoma cell line RAMOS cells; assay: Cell growth inhibition test using RAMOS cell, ATP assay (CellTiter-Glo); format: cell-based; conditions: Homo sapiens, Ramos, 72 h, cultured 3 days, 50% growth inhibition concentration
Procedure, shortened: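 RAMOS cells seeded at 4000 cells/well with compound and cultured 3 days at 37° C, 5% CO2; viability by CellTiter-Glo luminescence. Growth rate T/C % = 100×[(B−C)/(A−C)] using day-0 and final readings; GI50 interpolated from the two concentrations bracketing 50% growth.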

[3] = target: T1, TIP48/TIP49 complex (Homo sapiens, UniProt Q9Y230+Q9Y265); assay: ATPase assay of TIP48/TIP49 complex (ADP-Glo); format: biochemical; conditions: concentration at which the ATPase activity was inhibited by 50%
T1 construct: made in house; host or cells: E. coli
Procedure, shortened: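 Recombinant human TIP48 and TIP49 expressed in E. coli (24.5 μg/mL final) were incubated 1.5 h at room temperature with compound (0.0007–200 μM, 2% DMSO) in Tris-HCl pH 7.5 buffer containing MgCl2 and ATP. ADP formed was detected by ADP-Glo luminescence; inhibition came from dose-response curves.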

T1 sequence (Q9Y230 whole entry): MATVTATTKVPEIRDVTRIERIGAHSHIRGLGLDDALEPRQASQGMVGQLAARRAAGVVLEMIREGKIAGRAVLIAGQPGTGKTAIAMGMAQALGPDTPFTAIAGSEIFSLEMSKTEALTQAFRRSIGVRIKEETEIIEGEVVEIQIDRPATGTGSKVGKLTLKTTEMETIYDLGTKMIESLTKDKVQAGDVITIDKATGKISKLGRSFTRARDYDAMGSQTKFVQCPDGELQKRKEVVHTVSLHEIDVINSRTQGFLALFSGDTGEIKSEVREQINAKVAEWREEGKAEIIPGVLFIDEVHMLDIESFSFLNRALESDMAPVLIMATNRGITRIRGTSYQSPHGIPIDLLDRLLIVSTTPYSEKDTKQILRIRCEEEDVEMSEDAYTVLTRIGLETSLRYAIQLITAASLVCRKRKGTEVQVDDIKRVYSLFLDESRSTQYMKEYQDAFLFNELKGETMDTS
T1 sequence (Q9Y265 whole entry): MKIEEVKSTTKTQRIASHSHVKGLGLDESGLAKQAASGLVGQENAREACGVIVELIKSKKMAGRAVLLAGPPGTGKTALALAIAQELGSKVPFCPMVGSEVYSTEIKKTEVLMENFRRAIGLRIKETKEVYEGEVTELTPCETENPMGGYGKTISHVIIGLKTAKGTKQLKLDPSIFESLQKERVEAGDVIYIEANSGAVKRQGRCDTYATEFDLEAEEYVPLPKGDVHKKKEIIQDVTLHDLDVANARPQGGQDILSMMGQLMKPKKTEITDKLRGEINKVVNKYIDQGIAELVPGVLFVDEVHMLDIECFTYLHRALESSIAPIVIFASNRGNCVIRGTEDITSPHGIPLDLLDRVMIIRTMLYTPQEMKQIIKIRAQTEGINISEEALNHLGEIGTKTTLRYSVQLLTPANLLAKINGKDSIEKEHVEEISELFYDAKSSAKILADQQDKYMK

| GI50 [1] [nM] | GI50 [2] [nM] | IC50 [3] [nM] | Structure (SMILES) |
| --- | --- | --- | --- |
| 230 | 640 | 65 | CCOc1ncc(Cl)cc1NC(=O)CC(C)(C)CC(=O)Nc1c(COC)n(C)n(-c2ccccc2)c1=O [Example 118, N-(5-Chloro-2-ethoxy-3-pyridine)-N′-[5-(methoxymethyl)-1-methyl-3-oxo-2-phenyl-2,3-dihydro-1H-pyrazol-4-yl]-3,3-dimethylpentanediamide] |
| 27 | 120 | 33 | CCOc1ccc(Cl)cc1C(=O)NCC(C)(C)CC(=O)Nc1c(CCN(C)C)n(CC)n(-c2ccccc2)c1=O [Example 40, 5-Chloro-N-[4-({5-[2-(dimethylamino)ethyl]-1-ethyl-3-oxo-2-phenyl-2,3-dihydro-1H-pyrazol-4-yl}amino)-2,2-dimethyl-4-oxobutyl]-2-ethoxybenzamide] |
| 35 | 140 | 62 | CCOc1cc(F)c(Cl)cc1C(=O)NCC(C)(C)CC(=O)Nc1c(CCN(C)C)n(C)n(-c2ccccc2)c1=O [Example 12, 5-Chloro-N-[4-({5-[2-(dimethylamino)ethyl]-1-methyl-3-oxo-2-phenyl-2,3-dihydro-1H-pyrazol-4-yl}amino)-2,2-dimethyl-4-oxobutyl]-2-ethoxy-4-fluorobenzamide] |
| 42 | 140 | 31 | CCOc1ccc(Cl)cc1C(=O)NCC(C)(C)CC(=O)Nc1c(COC)n(C)n(-c2ccccc2)c1=O [Example 114, 5-Chloro-2-ethoxy-N-(4-{[5-(methoxymethyl)-1-methyl-3-oxo-2-phenyl-2,3-dihydro-1H-pyrazol-4-yl]amino}-2,2-dimethyl-4-oxobutyl)benzamide] |
| 59 | 190 | 59 | Cc1cccc(-n2c(=O)c(NC(=O)CC(C)(C)CNC(=O)c3cc(Cl)cc4cc(C)oc34)c(C)n2C)n1 [Example 155, 5-Chloro-N-(4-{[1,5-dimethyl-2-(6-methyl-2-pyridyl)-3-oxopyrazol-4-yl]amino}-2,2-dimethyl-4-oxobutyl)-2-methylbenzofuran-7-carboxamide] |
| 120 | 430 | 140 | CCOc1ccc(Cl)cc1C(=O)NCC(C)(C)CC(=O)Nc1c(C)n(C)n(-c2cc(OC)ccn2)c1=O [Example 157, 5-Chloro-2-ethoxy-N-(4-{[1-(4-methoxy-2-pyridyl)-2,3-dimethyl-5-oxopyrazol-4-yl]amino}-2,2-dimethyl-4-oxobutyl)benzamide] |
| 110 | 610 | 82 | CCOc1ncc(Cl)cc1C(=O)NCC(C)(C)CC(=O)Nc1c(CCN(C)C)n(C)n(-c2ccccc2)c1=O [Example 13, 5-Chloro-N-[4-({5-[2-(dimethylamino)ethyl]-1-methyl-3-oxo-2-phenyl-2,3-dihydro-1H-pyrazol-4-yl}amino)-2,2-dimethyl-4-oxobutyl]-2-ethoxypyridine-3-carboxamide] |
| 53 | 150 | 53 | CCOc1ccc(Cl)cc1C(=O)NCC(C)(C)CC(=O)Nc1c(CCN(C)C)n(C)n(-c2ccccc2)c1=O [Example 11, 5-Chloro-N-[4-({5-[2-(dimethylamino)ethyl]-1-methyl-3-oxo-2-phenyl-2,3-dihydro-1H-pyrazol-4-yl}amino)-2,2-dimethyl-4-oxobutyl]-2-ethoxybenzamide] |
| 99 | 240 | 82 | CCOc1ccc(Cl)cc1C(=O)NCC(C)(C)CC(=O)Nc1c(CCN(C)CC(F)(F)F)n(C)n(-c2ccccc2)c1=O [Example 39, 5-Chloro-N-{2,2-dimethyl-4-[(1-methyl-5-{2-[methyl(2,2,2-trifluoroethyl)amino]ethyl}-3-oxo-2-phenyl-2,3-dihydro-1H-pyrazol-4-yl)amino]-4-oxobutyl}-2-ethoxybenzamide] |
| 32 | 130 | 41 | Cc1cc2cc(Cl)cc(C(=O)NCC(C)(C)CC(=O)Nc3c(CCN(C)C)n(C)n(-c4ccccc4)c3=O)c2o1 [Example 14, 5-Chloro-N-[4-({5-[2-(dimethylamino)ethyl]-1-methyl-3-oxo-2-phenyl-2,3-dihydro-1H-pyrazol-4-yl}amino)-2,2-dimethyl-4-oxobutyl]-2-methylbenzofuran-7-carboxamide] |
